# Results as given in ChEMBL document CHEMBL1201862, “PubChem BioAssay data set” (2004).
# Structures can show the parent of a compound that is named as a salt. Activity calls are given as the source filed them. Rule as the data show it, for most assays here: actives have a measured EC50 and inactives only a lower limit.
# What was measured:
# [1] = target: T1, Heat shock factor protein 1 (Mus musculus, UniProt P38532); experiment: decrease of HSF1-responsive luciferase luminescence – cell-based, NIH3T3, dose retest, confirmation (AID 2382); format: functional;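 also: NIH3T3 fibroblasts with HSF1-driven luciferase reporter stressed by proteasome inhibitor MG132; luminescence from HSF1-driven luciferase expression after 8 hours of MG132 stress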
# T1 sequence (P38532 whole entry): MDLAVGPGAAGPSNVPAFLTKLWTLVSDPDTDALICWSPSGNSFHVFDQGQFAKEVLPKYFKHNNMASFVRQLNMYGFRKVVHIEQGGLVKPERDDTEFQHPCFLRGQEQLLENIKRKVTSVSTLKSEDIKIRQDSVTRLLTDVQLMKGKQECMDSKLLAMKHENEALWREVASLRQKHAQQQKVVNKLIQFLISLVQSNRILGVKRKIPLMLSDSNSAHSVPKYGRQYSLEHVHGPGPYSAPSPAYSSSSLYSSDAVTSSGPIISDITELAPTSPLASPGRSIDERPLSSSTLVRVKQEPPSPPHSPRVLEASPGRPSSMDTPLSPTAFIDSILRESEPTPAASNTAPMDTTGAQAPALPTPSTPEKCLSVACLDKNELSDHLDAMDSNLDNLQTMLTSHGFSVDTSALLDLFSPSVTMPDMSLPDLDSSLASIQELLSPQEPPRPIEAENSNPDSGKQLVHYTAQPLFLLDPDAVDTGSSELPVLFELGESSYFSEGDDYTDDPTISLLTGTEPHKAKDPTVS
# [2] = viability of uninfected HEp-2 cells – cell-based, HTS, cytotoxicity control for RSV inhibitor project, dose response (AID 2410); format: functional; settings: human respiratory syncytial virus
# [3] = target: T2, Rac GTPase-activating protein 1 (Homo sapiens, UniProt Q9H0H5); experiment: blockers of MgcRacGAP-driven Rac1 GTP hydrolysis – biochemical, ADP Hunter fluorescence, primary and confirmatory, confirmation (AID 624330); format: functional
# T2 sequence (Q9H0H5 whole entry): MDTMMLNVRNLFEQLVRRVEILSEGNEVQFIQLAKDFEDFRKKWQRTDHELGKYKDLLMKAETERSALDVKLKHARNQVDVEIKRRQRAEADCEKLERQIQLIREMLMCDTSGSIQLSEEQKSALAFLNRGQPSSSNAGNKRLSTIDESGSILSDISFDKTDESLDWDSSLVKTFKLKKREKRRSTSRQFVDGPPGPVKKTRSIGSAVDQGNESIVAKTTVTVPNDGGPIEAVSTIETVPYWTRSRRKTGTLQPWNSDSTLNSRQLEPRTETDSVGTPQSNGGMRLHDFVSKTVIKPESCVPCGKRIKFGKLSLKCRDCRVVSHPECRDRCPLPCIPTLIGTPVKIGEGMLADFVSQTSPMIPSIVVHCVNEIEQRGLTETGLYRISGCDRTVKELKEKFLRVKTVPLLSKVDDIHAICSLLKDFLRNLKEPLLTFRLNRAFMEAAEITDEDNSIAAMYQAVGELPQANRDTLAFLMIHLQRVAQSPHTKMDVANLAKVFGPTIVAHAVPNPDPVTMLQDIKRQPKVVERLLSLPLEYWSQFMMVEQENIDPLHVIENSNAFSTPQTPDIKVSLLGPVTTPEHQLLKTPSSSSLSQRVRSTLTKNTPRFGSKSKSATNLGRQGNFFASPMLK
# [4] = test system: Streptococcus sp. 'group A'; experiment: Streptococcus pyogenes SK(-)GAS viability under kanamycin – luminescence, BacTiterGlo, confirmation, counter-screen for streptokinase expression inhibitor project, dose response (AID 1900); format: functional, organism-based
# Streptococcus = experiment: GAS UMAA2166 growth inhibition – luminescence, BacTiterGlo, counter-screen for streptokinase expression inhibitor project, dose response (AID 1915); format: functional, organism-based;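 also: potency for reduction of bacterial viability or growth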
# Streptokinase A = target: T3, Streptokinase A (Streptococcus pyogenes serotype M1, UniProt P10520); experiment: viability-normalized secreted streptokinase activity reduction – plasminogen activation absorbance, OD405, dose response (AID 1914); format: functional, Streptococcus pyogenes M1 GAS;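 also: secreted streptokinase activity via plasminogen activation per viability signal from cell pellet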
# T3 sequence (P10520 whole entry): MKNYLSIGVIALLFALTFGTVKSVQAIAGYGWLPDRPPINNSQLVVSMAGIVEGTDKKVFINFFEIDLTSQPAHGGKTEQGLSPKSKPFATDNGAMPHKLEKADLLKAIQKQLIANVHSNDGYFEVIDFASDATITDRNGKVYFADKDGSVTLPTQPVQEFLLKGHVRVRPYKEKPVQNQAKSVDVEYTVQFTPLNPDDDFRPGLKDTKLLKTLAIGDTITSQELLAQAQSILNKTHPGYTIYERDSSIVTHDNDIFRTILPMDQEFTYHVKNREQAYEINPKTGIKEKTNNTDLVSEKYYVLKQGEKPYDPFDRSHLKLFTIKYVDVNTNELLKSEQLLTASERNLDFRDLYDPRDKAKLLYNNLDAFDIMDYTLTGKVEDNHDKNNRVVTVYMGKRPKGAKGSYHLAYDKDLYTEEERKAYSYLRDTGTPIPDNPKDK
# [5] = target: T4, Corticotropin-releasing factor receptor 2/Corticotropin-releasing factor-binding protein (Homo sapiens, UniProt P24387+Q13324); experiment: activators of CRF receptor 2 with binding protein – uHTS hits, confirmation (AID 602473); format: functional; settings: read-out: EC50_Mean
# T4 sequence (Q13324 whole entry): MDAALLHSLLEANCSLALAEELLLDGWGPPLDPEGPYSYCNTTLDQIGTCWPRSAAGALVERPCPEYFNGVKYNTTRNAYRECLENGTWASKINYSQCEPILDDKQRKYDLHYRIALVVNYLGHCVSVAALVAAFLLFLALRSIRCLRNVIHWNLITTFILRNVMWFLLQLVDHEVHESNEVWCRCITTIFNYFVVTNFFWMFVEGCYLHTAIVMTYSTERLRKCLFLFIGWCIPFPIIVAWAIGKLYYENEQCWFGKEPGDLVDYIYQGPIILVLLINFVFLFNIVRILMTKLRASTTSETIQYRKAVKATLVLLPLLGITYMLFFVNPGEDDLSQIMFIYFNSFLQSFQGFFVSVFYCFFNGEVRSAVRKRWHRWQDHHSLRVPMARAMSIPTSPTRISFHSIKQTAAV
# T4 sequence (P24387 whole entry): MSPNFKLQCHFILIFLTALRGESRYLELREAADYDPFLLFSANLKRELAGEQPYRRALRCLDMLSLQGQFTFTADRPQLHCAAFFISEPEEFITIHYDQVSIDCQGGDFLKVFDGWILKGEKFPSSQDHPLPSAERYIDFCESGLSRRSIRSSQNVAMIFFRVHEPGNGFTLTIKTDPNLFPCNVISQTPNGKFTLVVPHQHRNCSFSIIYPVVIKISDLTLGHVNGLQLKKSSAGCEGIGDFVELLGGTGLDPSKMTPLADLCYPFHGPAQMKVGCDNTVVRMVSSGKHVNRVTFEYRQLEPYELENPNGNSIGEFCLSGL
# [6] = Luminescence Cell-Based Dose Retest to Confirm Inhibitors of Cancer Stem Cells. [Related pubchem assays (depositor defined):AID2717, AID2721]; format: functional; settings: Homo sapiens
# [7] = Luminescence Cell-Based Dose Response HTS to Identify Activators of Luciferase Translation or Activity in H4 […] Cells. [Related pubchem assays: 1829 (Project Summary), 1814 (Primary HTS)]; format: functional
# 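For AC50 in this document: cells exposed to compound for roughly 70 hours or longer before luminescence read.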
compound,measurement,setting,value
NC(=O)Cc1ccc(C(=O)c2ccc(Cl)cc2)s1,EC50,[1],> 195 µM (not active)
CCOC(=O)c1cc(-c2ccccc2)sc1NC(=O)C(C)OC(=O)c1ccncc1 (stereo unspecified),CC50,[2],47.6 µM (active)
CCCN1CCC(=O)N([C@H](CSc2ccccc2)Cc2ccccc2)CC1,EC50,[1],> 195 µM (not active)
Cn1c(=O)c2ccccc2n(Cc2ccccc2Cl)c1=O,EC50,[1],> 195 µM (not active)
CC(C)c1ccc(NC(=O)CNCC(c2ccccc2)N(C)C)cc1 (stereo unspecified),IC50,[3],109 µM (active)
COc1ccc(NC(=O)CCN2CCN(S(=O)(=O)c3ccc(OC)cc3)CC2)cc1,EC50,[1],> 195 µM (not active)
CCOC(=O)C1CCN(C(=O)COc2cc(C)c(Br)cc2C)CC1,EC50,[1],> 195 µM (not active)
Cc1ccccc1OCC(=O)NCCS(=O)(=O)N1CCN(c2ccc(F)cc2)CC1,CC50,[2],38.1 µM (active)
Cc1ccc(NC(=O)[C@@H](C)NC(=O)[C@@H]2Cc3ccccc3CN2)cc1,EC50,[1],> 195 µM (not active)
c1cncc(-c2nnc(SCc3nc4ccccc4[nH]3)o2)c1,EC50,[1],126 µM (active)
O=C(OCCN1CCN(c2ncc(C(F)(F)F)cc2Cl)CC1)c1ccc(Cl)cc1,EC50,[1],> 195 µM (not active)
N#CCCn1nnc(-c2ccccc2F)n1,EC50,[1],> 195 µM (not active)
Cc1ccc(NC(=O)CC2C(=O)N(Cc3ccccc3)C(=S)N2NC(=O)c2ccccc2)c(C)c1 (stereo unspecified),CC50,[2],> 50 µM (active)
CCc1nc(NCCO)c(C#N)c2c1CCCC2,CC50,[2],30.6 µM (active)
Cc1csc(Nc2ccc(Cl)cc2)[n+]1-c1ccc(Cl)cc1,EC50,[4],12.9 µM (active)
same,EC50,Streptococcus,> 150 µM (not active)
same,EC50,Streptokinase A,29.9 µM (active)
O=C(c1ccc(F)cc1)N1CCN(c2cc(N3CCCCC3)c(F)cc2[N+](=O)[O-])CC1,CC50,[2],16.6 µM (active)
CC(C)N(C(=O)CSc1nc(COc2ccccc2)nc2ccccc12)C(C)C,CC50,[2],23.7 µM (active)
CC(C)(C)Cc1nnc(NS(=O)(=O)c2ccc(F)cc2)s1,EC50,[1],> 195 µM (not active)
COc1ccc2oc(C(=O)OCC(=O)NC3(C#N)CCCC3)c(C)c2c1,EC50,[4],57.9 µM (active)
same,EC50,Streptococcus,> 150 µM (not active)
same,EC50,Streptokinase A,> 150 µM (not active)
O=C(CNC1CC1)Nc1cc(C(F)(F)F)ccc1Cl,IC50,[3],123 µM (active)
CCO[C@H]1OC(C(=O)NCc2ccccc2)=C[C@@H](c2ccc(Br)cc2)[C@@H]1CCCO,CC50,[2],22 µM (active)
Cn1c(CNC(=O)CNC(=O)c2ccc(F)cc2)cc(=O)n(C)c1=O,EC50,[4],> 150 µM (not active)
same,EC50,Streptococcus,> 150 µM (not active)
same,EC50,Streptokinase A,> 150 µM (not active)
COc1cc(OC)c(C(=O)Nc2ccc(N(C)C)cc2)cc1OC,IC50,[3],22.1 µM (active)
Cc1ccc(C(=O)NNC(=S)NC(=O)c2ccc(Cl)cc2Cl)cc1,EC50,[5],2.78 µM (active)
same,EC50,[4],0.196 µM (active)
same,EC50,Streptococcus,3.82 µM (active)
COc1nc(-c2ccc(C)cc2)ccc1-c1noc(-c2cccnc2)n1,CC50,[2],31.1 µM (active)
Nc1nc(CN2CCN(c3ccc(F)cc3)CC2)nc(N2CCCc3ccccc32)n1,EC50,[4],2.01 µM (active)
same,EC50,Streptococcus,> 150 µM (not active)
same,EC50,Streptokinase A,> 150 µM (not active)
CCOC(=O)c1sc(NC(=O)c2ccc(S(=O)(=O)N3CCCCCC3)cc2)nc1-c1ccccc1,CC50,[2],7.07 µM (active)
COc1ccc(C2NS(=O)(=O)N=C2N)cc1 (stereo unspecified),EC50,[1],> 195 µM (not active)
Cc1ccc(C(=O)Nc2ccc(C(=O)O)cc2NC(=O)c2ccc(C)cc2)cc1,EC50,[1],14.7 µM (active)
c1ccc(-c2nnc3sc(CN4CCc5ccccc54)cn23)cc1,AC50,[6],7.58 µM (active)
COC(=O)C1=C(C)N(CCCC(=O)O)C(=O)NC1c1ccc(C#N)cc1 (stereo unspecified),EC50,[1],> 195 µM (not active)
Cc1cc(F)ccc1S(=O)(=O)NCC1CC2CCC1C2 (stereo unspecified),EC50,[5],> 53 µM (inactive)
O=C(NC(=S)Nc1ccc(F)cc1)c1ccc2c(c1)OCCO2,EC50,[5],> 53 µM (inactive)
same,EC50,[1],> 195 µM (not active)
CCN(CC)c1ccc(C=C2SC(=S)NC2=O)cc1,EC50,[5],4.11 µM (active)
CCOc1ccc(NS(=O)(=O)c2ccc(C(=O)NCC(c3cccs3)N3CCOCC3)cc2)cc1 (stereo unspecified),EC50,[5],5.04 µM (active)
CC(=O)NC(Cc1ccccc1)C(=O)Oc1ccc2ccccc2c1 (stereo unspecified),IC50,[3],39.7 µM (active)
Clc1ccc(/C=C/c2nc(Cl)c(-c3ccc(Cl)cc3)c(Cl)n2)cc1,EC50,[4],33 µM (active)
same,EC50,Streptococcus,> 150 µM (not active)
same,EC50,Streptokinase A,10 µM (active)
CCOc1ccc(/C=N/NC(=S)NC2CC3C=CC2C3)cc1 (stereo unspecified),EC50,[4],> 150 µM (not active)
same,EC50,Streptococcus,> 150 µM (not active)
same,EC50,Streptokinase A,> 150 µM (not active)
N#C/C(=C\c1c(Cl)cccc1Cl)c1nc2ccccc2[nH]1,CC50,[2],20.3 µM (active)
C=CCn1/c(=N/C(=O)C2COc3ccccc3O2)sc2cccc(OC)c21 (stereo unspecified),CC50,[2],18.4 µM (active)
Cc1ccc(C(C)C)c(OCc2ccc(C(=O)N/N=C/c3ccc(O)c(O)c3)cc2)c1,AC50,[6],3.23 µM (active)
Cc1cccc(N2CCC(/N=C/N(C)C)=N2)c1,IC50,[3],29.2 µM (active)
Cc1cc(N/N=C/c2ccccc2Cl)nc(NCc2ccccc2)n1,AC50,[6],3.88 µM (active)
COc1cc(/C(C)=N/N2CCN(c3ccccc3OC)CC2)ccc1O,IC50,[3],208 µM (active)
Cn1c(=O)[nH]c(=O)c2c1[nH]c(=S)n2Cc1ccc(Cl)cc1,IC50,[3],31.7 µM (active)
CC1Oc2cc3oc4c(O)c5c(cc4c(=O)c3c(O)c2C1(C)C)C=CC(C)(C)O5 (stereo unspecified) [GERONTOXANTHONE A],CC50,[2],14.9 µM (active)
same,EC50,[4],1.11 µM (active)
same,EC50,[7],2.13 µM (active)
same,EC50,Streptococcus,25.9 µM (active)
same,EC50,Streptokinase A,10.7 µM (active)
Cc1ccsc1/C=C/C1=NCCCN1C [MORANTEL TARTRATE],EC50,[1],> 195 µM (not active)
